One experiment concerns potato sprouting. To be noted: in vivo; cited from earlier work.
A further experiment concerns liverwort. The experiment is described as follows: Liverwort control by spraying. To be noted: for contribution to phytotoxicity, in words: liverwort; for liverwort control, in words: sprayed on liverwort. Format: in vivo. The source says:
The sinalbin had been hydrolyzed to undetectable levels.

For experiment [1], the system named is weeds, vegetative cover, wheat, cotton. Conditions: cited from earlier work.

`N.N#CS` [ammonium thiocyanate (NH4SCN), ammonium thiocyanate]: the “effect on potato sprouting, in words” value in the experiment on potato sprouting is “promote potato sprouting”.

With `N#CS` [SCN^−, ionic thiocyanate], the “contribution to phytotoxicity, in words” value with liverwort is listed as “minor contributor”. For the same compound, the “rate causing inhibition of wheat germination” value in experiment [1] (effect no longer observed at 69 days post application) is 342 kilograms SCN^−/ha. Also, in experiment [1] (in vivo), the “rate necessary for complete plant kill for 4 months” value is on record as 1,366 kg SCN^−/ha and the “rate removing a large percentage of the weeds” value is listed as 137 kilograms SCN^−/ha. For the same compound, the “rate at which cotton defoliation was possible” value in experiment [1] (solutions sprayed directly on vegetative growth) is given as 8.6 kilograms SCN^−/ha.

For `N#CCc1ccc(O)cc1` [4-hydroxyphenyl acetonitrile], in the experiment on liverwort, the “contribution to phytotoxicity, in words” value is on record as “primary phytotoxic compounds” and the “liverwort control, in words” value is “did not control the liverwort as effectively as applying the extract”. Further, in the experiment with liverwort (listed as nitrile), the “contribution to phytotoxicity, in words” value was “much more phytotoxic than SCN^−”.

`N#C[S-].[Na+]` [sodium thiocyanate (NaSCN), sodium thiocyanate]: the “effect on potato sprouting, in words” value in the experiment on potato sprouting was “promote potato sprouting”.

As for `N#C[S-].[K+]` [potassium thiocyanate (KSCN), potassium thiocyanate], the “effect on potato sprouting, in words” value in the experiment with potato sprouting is “promote potato sprouting”.

As for `OCc1ccc(O)cc1` [4-hydroxybenzyl alcohol], in the experiment with liverwort, the “contribution to phytotoxicity, in words” value was “primary phytotoxic compounds” and the “liverwort control, in words” value was “did not control the liverwort as effectively as applying the extract”. In addition, the “contribution to phytotoxicity, in words” value in the experiment on liverwort (listed as 4-OH benzyl alcohol) is reported as “more phytotoxic that SCN^−”.

The values are drawn from patent US10588321B2, “Method for using mustard meal or an extract thereof” (University of Idaho, priority 2015, dated 2020).
